A word on the IC50: it is the point on the concentration scale where inhibition reaches its midpoint. In general, inhibition refers to the drop in the measured response relative to a control, in per cent.

Assay [1] relates to Phosphorylation of Akt in THP1 cells. In words: PI3Kδ dependent pAkt phosphorylation in M-CSF stimulated THP-1 cells. The class given is cell-based. How it is done:
(§1) Quantification of enzymatic p38 activity and p38-dependent TNF production in THP-1 cells was performed as previously described. Enzymatic Syk kinase activity assays and Syk dependent LAD2 cells degranulation assays were performed as previously described. PI3Kδ dependent pAkt phosphorylation in macrophage colony-stimulating factor (M-CSF) stimulated THP-1 cells was measured as previously described.

A further assay has as its target T1, PDE5 (Homo sapiens, UniProt O76074).
T1 construct: Eurofins Pharma Discovery Services (contract assay service)
In words: BioPrint panel: PDE5. The assay is classed as biochemical. Here is the method:
General selectivity profiling was performed at Eurofins Pharma Discovery Services using the BioPrint® panel and reference database. The panel included 104 binding assays (non-peptide, peptide and nuclear receptors, ion channels and amine transporters) and 41 cell based and enzyme assays (including 10 kinases, 9 proteases and 5 phosphodiesterases) (S4 Table). More than 70% were human targets. Compound 4 was tested at a concentration of 1 μM in duplicate (10 μM for P-gp and CYP enzymes). The resulting bioactivity fingerprint was compared with a database of >2,500 BioPrint marketed drugs and reference compounds. IC50 values for selected activities were further characterized at 8 concentrations in duplicate.

In another assay the target is T2, DNA-PK (Homo sapiens, UniProt P78527).
T2 construct: Thermo Fisher Scientific SelectScreen (contract assay service)
In words: DNA-PK activity (SelectScreen). The note with it: biochemical dose response, duplicate; read-out: Inhibition of indicated activity (IC50, μM): DNA-PK. How it is done:
Kinase selectivity was evaluated at Eurofins Pharma Discovery Services using a selection of 125 representative kinases tested at a concentration of 10 μM in duplicate (S3 Table). IC50 values for selected activities were further characterized at 9 duplicate concentrations. DNA-PK activity was determined at the SelectScreen® Biochemical kinase Profiling Service of Thermo Fisher Scientific.

The next assay deals with T3, alpha 2A (Homo sapiens, UniProt P08913).
T3 construct: purchased Eurofins Pharma Discovery Services (KinaseProfiler; Cerep BioPrint panel)
The assay can be described thus: BioPrint panel: alpha 2A (h) (antagonist). The class given is binding. The note with it: 1 micromolar, read-out: percentage of inhibition of activity. From the text: (§2) Supplement pone.0189247.s004.xlsx, sheet "Bioprint Selectivity Panel" | column: %

For a further assay, the target named is T4, beta 2 (Homo sapiens, UniProt P07550).
T4 construct: purchased Eurofins Pharma Discovery Services (KinaseProfiler; Cerep BioPrint panel)
The assay can be described thus: BioPrint panel: beta 2 (h) (agonist). The assay is classed as binding. The conditions noted are these: 1 micromolar, read-out: percentage of inhibition of activity.
Excerpt: as §2

The next assay deals with T5, CB2 (Homo sapiens, UniProt P34972).
T5 construct: purchased Eurofins Pharma Discovery Services (KinaseProfiler; Cerep BioPrint panel)
In words: BioPrint panel: CB2 (h) (agonist). The assay is classed as binding. The note with it: 1 micromolar, read-out: percentage of inhibition of activity.
Excerpt: as §2

The target in another assay is T6, CCK2 (CCKB) (Homo sapiens, UniProt P32239).
T6 construct: purchased Eurofins Pharma Discovery Services (KinaseProfiler; Cerep BioPrint panel)
The assay can be described thus: BioPrint panel: CCK2 (CCKB) (h) (agonist). The class given is binding. The note with it: 1 micromolar, read-out: percentage of inhibition of activity.
Excerpt: as §2

A further assay has as its target T7, CRF1 (Homo sapiens, UniProt P34998).
T7 construct: purchased Eurofins Pharma Discovery Services (KinaseProfiler; Cerep BioPrint panel)
The assay can be described thus: BioPrint panel: CRF1 (h) (agonist). The assay is classed as binding. The note with it: 1 micromolar, read-out: percentage of inhibition of activity.
Excerpt: as §2

The target of a further assay is T8, ETB (Homo sapiens, UniProt P24530).
T8 construct: purchased Eurofins Pharma Discovery Services (KinaseProfiler; Cerep BioPrint panel)
In words: BioPrint panel: ETB (h) (agonist). The class given is binding. The note with it: 1 micromolar, read-out: percentage of inhibition of activity.
Excerpt: as §2

Another assay addresses T9, glucagon (Homo sapiens, UniProt P47871).
T9 construct: purchased Eurofins Pharma Discovery Services (KinaseProfiler; Cerep BioPrint panel)
The assay can be described thus: BioPrint panel: glucagon (h) (agonist). The assay is classed as binding. The note with it: 1 micromolar, read-out: percentage of inhibition of activity.
Excerpt: as §2

The target of another assay is T10, MC1 (Mus musculus, UniProt Q01727).
T10 construct: purchased Eurofins Pharma Discovery Services (KinaseProfiler; Cerep BioPrint panel)
In words: BioPrint panel: MC1 (agonist). The conditions noted are these: 1 micromolar, read-out: percentage of inhibition of activity. The class given is binding.
Excerpt: as §2

In a further assay the target is T11, MT1 (ML1A) (Homo sapiens, UniProt P48039).
T11 construct: purchased Eurofins Pharma Discovery Services (KinaseProfiler; Cerep BioPrint panel)
In words: BioPrint panel: MT1 (ML1A) (h) (agonist). The assay is classed as binding. The note with it: 1 micromolar, read-out: percentage of inhibition of activity.
Excerpt: as §2

For another assay, the target named is T12, NK2 (Homo sapiens, UniProt P21452).
T12 construct: purchased Eurofins Pharma Discovery Services (KinaseProfiler; Cerep BioPrint panel)
In words: BioPrint panel: NK2 (h) (agonist). The assay is classed as binding. The note with it: 1 micromolar, read-out: percentage of inhibition of activity.
Excerpt: as §2

The next assay has as its target T13, 5-HT2C (Homo sapiens, UniProt P28335).
T13 construct: purchased Eurofins Pharma Discovery Services (KinaseProfiler; Cerep BioPrint panel)
The assay can be described thus: BioPrint panel: 5-HT2C (h) (agonist). The assay is classed as binding. The conditions noted are these: 1 micromolar, read-out: percentage of inhibition of activity.
Excerpt: as §2

A further assay addresses T14, 5-HT3 (Homo sapiens, UniProt P46098).
T14 construct: purchased Eurofins Pharma Discovery Services (KinaseProfiler; Cerep BioPrint panel)
In words: BioPrint panel: 5-HT3 (h) (antagonist). The assay is classed as binding. The note with it: 1 micromolar, read-out: percentage of inhibition of activity.
Excerpt: as §2

A further assay concerns the target T15, 5-HT7 (Homo sapiens, UniProt P34969).
T15 construct: purchased Eurofins Pharma Discovery Services (KinaseProfiler; Cerep BioPrint panel)
The assay can be described thus: BioPrint panel: 5-HT7 (h) (agonist). The assay is classed as binding. The note with it: 1 micromolar, read-out: percentage of inhibition of activity.
Excerpt: as §2

Another assay has as its target T16, UT (Homo sapiens, UniProt Q9UKP6).
T16 construct: purchased Eurofins Pharma Discovery Services (KinaseProfiler; Cerep BioPrint panel)
In words: BioPrint panel: UT (h) (agonist). The assay is classed as binding. The conditions noted are these: 1 micromolar, read-out: percentage of inhibition of activity.
Excerpt: as §2

In another assay the target is T17, VPAC1 (VIP1) (Homo sapiens, UniProt P32241).
T17 construct: purchased Eurofins Pharma Discovery Services (KinaseProfiler; Cerep BioPrint panel)
In words: BioPrint panel: VPAC1 (VIP1) (h) (agonist). The class given is binding. The conditions noted are these: 1 micromolar, read-out: percentage of inhibition of activity.
Excerpt: as §2

In the next assay the target is T18, V1a (Homo sapiens, UniProt P37288).
T18 construct: purchased Eurofins Pharma Discovery Services (KinaseProfiler; Cerep BioPrint panel)
The assay can be described thus: BioPrint panel: V1a (h) (agonist). The class given is binding. The conditions noted are these: 1 micromolar, read-out: percentage of inhibition of activity.
Excerpt: as §2

Another assay has as its system Cl- channel (GABA-gated). In words: BioPrint panel: Cl- channel (GABA-gated) (antagonist). The conditions noted are these: 1 micromolar. The assay is classed as binding.
Excerpt: as §2

The target of a further assay is T19, PDE4D2 (Homo sapiens, UniProt Q08499).
T19 construct: purchased Eurofins Pharma Discovery Services (KinaseProfiler; Cerep BioPrint panel)
The assay can be described thus: BioPrint panel: PDE4D2 (h). The assay is classed as biochemical. The note with it: 1 micromolar, read-out: percentage of inhibition of activity.
Excerpt: as §2

The target of a further assay is T20, ACE-2 (Homo sapiens, UniProt Q9BYF1).
T20 construct: purchased Eurofins Pharma Discovery Services (KinaseProfiler; Cerep BioPrint panel)
In words: BioPrint panel: ACE-2 (h). The assay is classed as biochemical. The conditions noted are these: 1 micromolar.
Excerpt: as §2

The subject of another assay is HIV-1 protease. The assay can be described thus: BioPrint panel: HIV-1 protease. The conditions noted are these: 1 micromolar. The assay is classed as biochemical.
Excerpt: as §2

The target of another assay is T21, IRK (InsR) (Homo sapiens, UniProt P06213).
T21 construct: purchased Eurofins Pharma Discovery Services (KinaseProfiler; Cerep BioPrint panel)
The assay can be described thus: BioPrint panel: IRK (h) (InsR). The class given is biochemical. The note with it: 1 micromolar, read-out: percentage of inhibition of activity.
Excerpt: as §2

Another assay concerns LAD2 cells degranulation. The assay can be described thus: Syk dependent LAD2 cells degranulation. The class given is cell-based, human. Here is the method: Normal human bronchial epithelial cells (NHBE) (Lonza CC-2540,) corresponding to 2 different lots derived from 2 human healthy donors, henceforth referred to as donors #1 and #2, were purchased from Lonza, who provided the cells after obtaining permission for use in research applications by informed consent. Cells were cultured in 5% CO2 at 37°C according to the manufacturer´s instructions using Lonza´s Bronchial Epithelial Basal Medium (BEBM) (CC-3171) supplemented with Lonza´s Bronchial Epithelial Cell Growth Medium bullet kit (BEGM) (CC-4175), and grown in collagen coated T-75 and T-175 tissue culture flasks as required (Becton Dickinson 356485 and 356487). Subculturing after trypsinization and amplification was performed using Lonza´s reagent pack subculture reagents (CC-5034) following the manufacturer´s instructions. CHO-K1 and THP-1 cells were purchased from the ATCC through LGC standards (ATCC CCL-61 and TIB-202 respectively). The LAD2 cell line is a human mast cell line established at the National Institutes of Health (Bethesda, Maryland, U.S.).
as §1

SMILES strings stand for the structures. “And” between values parts separate entries of the source, which are not always exact repeats. Equal entries are not always repeated. Where two headings read alike, the source gives them in different places.

T7 sequence (P34998 24-415): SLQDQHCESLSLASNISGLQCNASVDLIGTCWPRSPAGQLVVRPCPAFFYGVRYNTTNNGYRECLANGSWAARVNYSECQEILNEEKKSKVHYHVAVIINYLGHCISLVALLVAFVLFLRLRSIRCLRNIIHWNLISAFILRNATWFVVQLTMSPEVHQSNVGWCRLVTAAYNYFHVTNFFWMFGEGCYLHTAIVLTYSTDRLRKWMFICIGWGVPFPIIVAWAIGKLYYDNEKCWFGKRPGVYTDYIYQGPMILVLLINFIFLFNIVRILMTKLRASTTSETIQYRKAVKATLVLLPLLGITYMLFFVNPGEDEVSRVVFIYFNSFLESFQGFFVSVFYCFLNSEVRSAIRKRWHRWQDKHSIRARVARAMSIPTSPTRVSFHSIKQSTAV
T10 sequence (Q01727 whole entry): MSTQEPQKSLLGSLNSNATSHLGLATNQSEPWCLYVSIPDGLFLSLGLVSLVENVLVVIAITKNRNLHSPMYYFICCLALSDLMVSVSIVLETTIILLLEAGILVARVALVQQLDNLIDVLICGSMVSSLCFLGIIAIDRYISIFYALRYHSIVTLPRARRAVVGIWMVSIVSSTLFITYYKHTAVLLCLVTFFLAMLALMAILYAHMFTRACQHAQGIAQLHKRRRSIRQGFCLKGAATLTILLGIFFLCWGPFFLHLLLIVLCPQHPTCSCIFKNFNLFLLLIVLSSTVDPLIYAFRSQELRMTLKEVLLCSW
T8 sequence (P24530 27-442): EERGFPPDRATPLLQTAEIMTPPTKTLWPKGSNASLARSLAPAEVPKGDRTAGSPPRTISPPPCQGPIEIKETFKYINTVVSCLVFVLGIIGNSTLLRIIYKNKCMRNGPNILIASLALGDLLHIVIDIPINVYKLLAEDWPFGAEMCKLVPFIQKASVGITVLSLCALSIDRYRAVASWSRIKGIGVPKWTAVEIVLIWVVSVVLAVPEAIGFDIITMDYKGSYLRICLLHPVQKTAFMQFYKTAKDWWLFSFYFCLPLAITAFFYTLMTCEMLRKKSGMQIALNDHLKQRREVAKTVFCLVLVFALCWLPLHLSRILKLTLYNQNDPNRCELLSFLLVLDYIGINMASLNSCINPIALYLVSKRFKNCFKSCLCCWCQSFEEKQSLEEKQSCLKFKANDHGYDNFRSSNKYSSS
T20 sequence (Q9BYF1 18-805): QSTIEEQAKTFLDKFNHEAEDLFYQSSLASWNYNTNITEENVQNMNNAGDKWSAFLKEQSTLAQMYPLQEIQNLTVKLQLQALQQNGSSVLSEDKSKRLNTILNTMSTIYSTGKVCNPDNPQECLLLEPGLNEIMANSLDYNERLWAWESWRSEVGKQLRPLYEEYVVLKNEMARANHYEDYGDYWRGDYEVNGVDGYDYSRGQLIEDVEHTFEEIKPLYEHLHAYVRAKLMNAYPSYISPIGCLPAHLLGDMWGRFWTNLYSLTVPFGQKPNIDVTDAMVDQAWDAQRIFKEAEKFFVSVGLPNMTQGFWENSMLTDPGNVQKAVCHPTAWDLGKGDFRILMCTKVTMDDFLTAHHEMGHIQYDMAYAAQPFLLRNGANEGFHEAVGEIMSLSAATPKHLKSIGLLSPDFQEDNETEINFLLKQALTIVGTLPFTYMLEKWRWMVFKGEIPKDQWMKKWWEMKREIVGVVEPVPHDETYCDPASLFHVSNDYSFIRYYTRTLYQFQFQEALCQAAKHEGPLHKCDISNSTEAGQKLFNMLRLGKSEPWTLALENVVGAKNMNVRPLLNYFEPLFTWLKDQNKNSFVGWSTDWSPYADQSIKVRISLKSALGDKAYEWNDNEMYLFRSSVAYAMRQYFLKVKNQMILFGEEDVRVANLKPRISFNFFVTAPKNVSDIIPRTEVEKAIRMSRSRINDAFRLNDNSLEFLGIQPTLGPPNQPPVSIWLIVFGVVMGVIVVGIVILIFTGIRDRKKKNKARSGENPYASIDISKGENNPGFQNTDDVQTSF
T5 sequence (P34972 whole entry): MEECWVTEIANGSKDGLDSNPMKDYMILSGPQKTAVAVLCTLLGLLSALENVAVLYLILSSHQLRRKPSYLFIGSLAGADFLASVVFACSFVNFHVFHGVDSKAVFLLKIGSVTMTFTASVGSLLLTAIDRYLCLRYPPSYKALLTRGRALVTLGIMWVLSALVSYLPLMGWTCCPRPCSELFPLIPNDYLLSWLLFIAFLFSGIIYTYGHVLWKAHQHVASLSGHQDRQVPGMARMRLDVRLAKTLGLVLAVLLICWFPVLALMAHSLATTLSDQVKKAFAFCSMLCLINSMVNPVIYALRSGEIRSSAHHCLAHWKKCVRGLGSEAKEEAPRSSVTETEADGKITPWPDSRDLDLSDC
T13 sequence (P28335 33-458): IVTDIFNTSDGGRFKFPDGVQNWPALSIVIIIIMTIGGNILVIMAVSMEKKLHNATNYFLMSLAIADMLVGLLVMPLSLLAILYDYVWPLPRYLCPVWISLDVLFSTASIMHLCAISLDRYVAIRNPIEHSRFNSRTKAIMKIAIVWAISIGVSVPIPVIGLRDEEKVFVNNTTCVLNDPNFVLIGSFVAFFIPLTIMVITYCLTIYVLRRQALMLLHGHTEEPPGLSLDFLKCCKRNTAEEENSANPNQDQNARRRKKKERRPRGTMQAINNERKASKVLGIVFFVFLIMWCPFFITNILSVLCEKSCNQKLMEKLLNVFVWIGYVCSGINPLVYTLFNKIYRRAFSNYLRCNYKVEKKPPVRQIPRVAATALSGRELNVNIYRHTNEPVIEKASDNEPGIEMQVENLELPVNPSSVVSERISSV
T21 sequence (P06213 28-1382): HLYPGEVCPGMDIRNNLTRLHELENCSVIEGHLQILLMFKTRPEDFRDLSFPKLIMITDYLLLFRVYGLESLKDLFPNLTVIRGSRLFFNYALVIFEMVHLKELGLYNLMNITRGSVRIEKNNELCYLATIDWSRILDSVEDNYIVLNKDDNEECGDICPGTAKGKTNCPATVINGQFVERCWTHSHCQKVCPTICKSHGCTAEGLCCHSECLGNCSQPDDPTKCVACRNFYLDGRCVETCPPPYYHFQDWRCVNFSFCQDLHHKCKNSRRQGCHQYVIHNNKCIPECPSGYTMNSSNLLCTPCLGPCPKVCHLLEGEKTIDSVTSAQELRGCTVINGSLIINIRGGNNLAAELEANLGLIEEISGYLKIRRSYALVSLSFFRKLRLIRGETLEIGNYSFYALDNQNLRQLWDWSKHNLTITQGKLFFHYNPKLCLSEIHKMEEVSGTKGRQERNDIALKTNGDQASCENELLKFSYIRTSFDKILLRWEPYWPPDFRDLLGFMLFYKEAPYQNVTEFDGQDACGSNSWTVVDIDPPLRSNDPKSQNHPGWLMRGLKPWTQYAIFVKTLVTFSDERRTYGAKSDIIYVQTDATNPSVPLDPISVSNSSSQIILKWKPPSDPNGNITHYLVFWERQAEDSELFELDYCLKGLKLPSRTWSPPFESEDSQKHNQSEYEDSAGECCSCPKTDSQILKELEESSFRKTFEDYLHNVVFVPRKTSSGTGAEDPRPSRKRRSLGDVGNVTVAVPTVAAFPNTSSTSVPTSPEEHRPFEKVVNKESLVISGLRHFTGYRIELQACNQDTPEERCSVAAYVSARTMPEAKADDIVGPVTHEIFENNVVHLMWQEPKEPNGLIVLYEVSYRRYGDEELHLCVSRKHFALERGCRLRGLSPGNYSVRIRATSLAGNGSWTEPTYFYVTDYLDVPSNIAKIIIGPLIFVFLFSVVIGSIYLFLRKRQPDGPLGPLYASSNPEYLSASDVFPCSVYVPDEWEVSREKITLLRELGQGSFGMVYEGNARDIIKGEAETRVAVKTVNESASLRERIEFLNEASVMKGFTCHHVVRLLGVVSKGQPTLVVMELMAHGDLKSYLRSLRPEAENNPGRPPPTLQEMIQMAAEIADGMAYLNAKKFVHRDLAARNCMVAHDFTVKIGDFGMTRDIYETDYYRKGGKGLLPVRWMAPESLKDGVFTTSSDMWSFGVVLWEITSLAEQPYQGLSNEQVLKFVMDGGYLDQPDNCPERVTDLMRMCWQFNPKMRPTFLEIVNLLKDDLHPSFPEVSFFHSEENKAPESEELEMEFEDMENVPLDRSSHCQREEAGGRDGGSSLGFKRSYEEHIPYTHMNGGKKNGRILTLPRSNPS
T17 sequence (P32241 31-457): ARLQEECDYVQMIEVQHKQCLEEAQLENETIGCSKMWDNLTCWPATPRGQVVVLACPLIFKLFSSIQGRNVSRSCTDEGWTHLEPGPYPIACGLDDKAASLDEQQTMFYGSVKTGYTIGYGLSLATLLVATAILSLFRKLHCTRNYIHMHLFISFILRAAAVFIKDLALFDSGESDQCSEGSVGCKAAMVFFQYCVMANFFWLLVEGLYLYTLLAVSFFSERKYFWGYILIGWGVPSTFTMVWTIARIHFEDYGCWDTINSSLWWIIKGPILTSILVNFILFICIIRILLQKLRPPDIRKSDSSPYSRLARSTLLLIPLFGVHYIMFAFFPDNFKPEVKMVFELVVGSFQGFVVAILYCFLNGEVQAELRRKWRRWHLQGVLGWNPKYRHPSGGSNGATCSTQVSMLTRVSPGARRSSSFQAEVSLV
T3 sequence (P08913 whole entry): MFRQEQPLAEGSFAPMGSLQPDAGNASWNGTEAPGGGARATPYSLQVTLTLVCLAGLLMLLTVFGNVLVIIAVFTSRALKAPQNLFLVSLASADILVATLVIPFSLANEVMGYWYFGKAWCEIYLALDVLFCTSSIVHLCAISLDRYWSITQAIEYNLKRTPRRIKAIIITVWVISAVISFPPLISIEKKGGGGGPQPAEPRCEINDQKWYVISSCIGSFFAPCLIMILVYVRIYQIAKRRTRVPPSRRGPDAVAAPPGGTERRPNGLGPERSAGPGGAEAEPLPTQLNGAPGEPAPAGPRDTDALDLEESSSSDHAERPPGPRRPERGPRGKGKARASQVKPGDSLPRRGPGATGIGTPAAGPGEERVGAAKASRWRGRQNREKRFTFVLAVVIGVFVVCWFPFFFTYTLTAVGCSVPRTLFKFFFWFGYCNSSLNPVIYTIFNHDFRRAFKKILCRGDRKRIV

Regarding `Cn1cc(-c2cccc(-c3nc(C(=O)NC4C5CC6CC4CC(O)(C6)C5)c(N)nc3N)c2)cn1` (stereo not drawn) [compound 4], the IC50 worked out at 0.099 µM in [1] (Homo sapiens, THP-1, M-CSF stimulated, geometric mean, read-out: Activity in reference cell based assay (IC50, μM) (95% CI) Phosphorylation of Akt in THP1 cells); 0.085 µM in assay [1] (Homo sapiens, THP-1, individual values, read-out: Cellular activity (IC50, mM) Akt phosphorylation in THP1); 0.117 µM in assay [1] (individual values, read-out: Cellular activity (IC50, mM) Akt phosphorylation in THP1); 0.92 µM on PDE5 (dose response, duplicate, read-out: Inhibition of indicated activity (IC50, μM): PDE5); 0.348 µM on DNA-PK. Further, the inhibition at 1 µM on PDE5 (1 μM, read-out: inhibition of PDE5) was 61%; at PDE5 (1 micromolar, PDE5 (h) (non-selective), read-out: percentage of inhibition of activity), 61.5%; at alpha 2A, 6.2%; at beta 2, 1.6%; on CB2 it was -12.2%; on CCK2 (CCKB), -3.4%. Further, the inhibition at 1 µM on CRF1 is -37%; on ETB it was -6.7%; at glucagon, -8.3%; on MC1, -2.3%; at MT1 (ML1A) it was 4.2%; at NK2, -1.8%. Besides, the inhibition at 1 µM is -17.7% on 5-HT2C; -0.4% on 5-HT3; -4.3% on 5-HT7; 7.4% at UT; -4.6% at VPAC1 (VIP1); -9.3% at V1a. The values for the inhibition at 1 µM on PDE4D2 and on IRK (InsR) were 3% and 5%, respectively. Also, the “percentage of inhibition of activity” value in the assay on Cl- channel (GABA-gated) is listed as 0.5%; at ACE-2 it was “INTER”; in the assay with HIV-1 protease, -16.1%.
For `CS(=O)(=O)N1CCN(c2ccc(Nc3ncc(C(N)=O)c(NC4CC4)n3)cc2)CC1` [compound 5], the IC50 is 0.019 µM with LAD2 cells degranulation (Homo sapiens, LAD2, geometric mean, read-out: Activity in reference cell based assay (IC50, μM) (95% CI) LAD2 cells degranulation); 0.0341 µM and 0.015 µM and 0.0149 µM in the assay with LAD2 cells degranulation (individual values, read-out: Cellular activity (IC50, mM) LAD2 cells degranulation).

(Values after article PMC5761851, “Application of a phenotypic drug discovery strategy to identify biological and chemical starting points for inhibition of TSLP production in lung epithelial cells” (PLoS ONE, 2018).)
